Common to all, as to experiment: relative viability (nuclei count vs DMSO), 5 days (fraction); higher = more cells survive
Compound in experiment [1]: O=c1[nH]cc(F)c(=O)[nH]1 [5-Fluorouracil] + CS(=O)(=O)N1CCN(Cc2cc3nc(-c4cccc5[nH]ncc45)nc(N4CCOCC4)c3s2)CC1 [Pictilisib] (partner 1 µM)
A digest of the protocol:
(§1)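 Values are medians from duplicate plates. Each reflects relative viability, defined as the nuclei count of treated wells over that of vehicle wells. Lung cancer cell lines in 1536-well plates were pin-tool dosed one day after seeding with one drug alone or with a fixed anchor-drug dose plus five library-drug doses (not always all listed) in √10 steps, then fixed, stained and imaged at 4× after 5 days.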

Compound in the experiment “Staurosporine + OSI-027”: CN[C@@H]1C[C@H]2O[C@@](C)([C@@H]1OC)n1c3ccccc3c3c4c(c5c6ccccc6n2c5c31)C(=O)NC4 [Staurosporine] + COc1cccc2cc(-c3nc([C@H]4CC[C@H](C(=O)O)CC4)n4ncnc(N)c34)[nH]c12 [OSI-027] (partner 0.5 µM)
A digest of the protocol:
as §1

Compound in the experiment “Sulindac + Tozasertib”: CC1=C(CC(=O)O)c2cc(F)ccc2/C1=C\c1ccc([S+](C)[O-])cc1 [Sulindac] + Cc1cc(Nc2cc(N3CCN(C)CC3)nc(Sc3ccc(NC(=O)C4CC4)cc3)n2)n[nH]1 [Tozasertib] (partner 0.1 µM)
Put shortly:
as §1

Compound in experiment [2]: O=c1[nH]cc(F)c(=O)[nH]1 [5-Fluorouracil] + O=C(CCCCCCC(=O)Nc1ccccc1)NO [Vorinostat] (partner 1 µM)
Put shortly: as §1

For Calu-6, the relative viability in experiment [1] (first compound 0.02 µM) was 1.08; in experiment [1] (first compound 0.2 µM), 0.948; in experiment [1] (first compound 0.6325 µM) it was 0.836; in experiment [1] (first compound 2 µM) it was 0.485.
For the cell line ChaGo-K-1, the relative viability came out at 0.678 with Staurosporine + OSI-027 (first compound 0.005 µM); 0.203 in the experiment with Staurosporine + OSI-027 (first compound 0.01581 µM); 0.553 with Staurosporine + OSI-027 (first compound 0.05 µM); 0.135 in the experiment with Staurosporine + OSI-027 (first compound 0.1581 µM); 0.118 in the experiment with Staurosporine + OSI-027 (first compound 0.5 µM); 0.228 with Sulindac + Tozasertib (first compound 0.08 µM). Further, the relative viability is 0.197 with Sulindac + Tozasertib (first compound 0.253 µM); 0.24 with Sulindac + Tozasertib (first compound 0.8 µM); 0.217 with Sulindac + Tozasertib (first compound 2.53 µM); 0.241 with Sulindac + Tozasertib (first compound 8 µM); 0.747 in experiment [1] (first compound 0.02 µM); 0.919 in experiment [1] (first compound 0.2 µM). Further, the relative viability is 0.48 in experiment [1] (first compound 0.6325 µM); 0.645 in experiment [1] (first compound 2 µM); 0.814 in experiment [2] (first compound 0.02 µM); 0.687 in experiment [2] (first compound 0.2 µM); 0.622 in experiment [2] (first compound 0.6325 µM); 0.384 in experiment [2] (first compound 2 µM).
In the case of EBC-1, the relative viability was 0.319 in experiment [1] (first compound 0.02 µM), 0.33 in experiment [1] (first compound 0.2 µM), 0.46 in experiment [1] (first compound 0.6325 µM) and 0.329 in experiment [1] (first compound 2 µM).
Turning to EKVX, the relative viability with Staurosporine + OSI-027 (first compound 0.005 µM) worked out at 0.557; with Staurosporine + OSI-027 (first compound 0.01581 µM), 0.399; with Staurosporine + OSI-027 (first compound 0.05 µM), 0.284; with Staurosporine + OSI-027 (first compound 0.1581 µM), 0.209; with Staurosporine + OSI-027 (first compound 0.5 µM) it was 0.15; with Sulindac + Tozasertib (first compound 0.08 µM), 0.417. Further, the relative viability with Sulindac + Tozasertib (first compound 0.253 µM) was determined as 0.334; with Sulindac + Tozasertib (first compound 0.8 µM), 0.345; with Sulindac + Tozasertib (first compound 2.53 µM), 0.434; with Sulindac + Tozasertib (first compound 8 µM) it was 0.407; in experiment [1] (first compound 0.6325 µM), 0.151; in experiment [1] (first compound 2 µM), 0.115. The relative viability in experiment [2] (first compound 0.02 µM) was 0.69; in experiment [2] (first compound 0.2 µM) it was 0.328.
As to EMC-BAC-2, the relative viability in the experiment with Staurosporine + OSI-027 (first compound 0.005 µM) was determined as 0.211; with Staurosporine + OSI-027 (first compound 0.01581 µM) it was 0.177; in the experiment with Staurosporine + OSI-027 (first compound 0.05 µM), 0.161; with Staurosporine + OSI-027 (first compound 0.1581 µM), 0.224; with Staurosporine + OSI-027 (first compound 0.5 µM) it was 0.177; in the experiment with Sulindac + Tozasertib (first compound 0.08 µM), 0.269. Also, the relative viability with Sulindac + Tozasertib (first compound 0.253 µM) stood at 0.298; with Sulindac + Tozasertib (first compound 0.8 µM), 0.287; with Sulindac + Tozasertib (first compound 2.53 µM) it was 0.278; with Sulindac + Tozasertib (first compound 8 µM) it was 0.315; in experiment [1] (first compound 0.02 µM) it was 0.616; in experiment [1] (first compound 0.2 µM), 0.56. The relative viability in experiment [1] (first compound 0.6325 µM) amounted to 0.506; in experiment [1] (first compound 2 µM), 0.536; in experiment [2] (first compound 0.02 µM), 0.448; in experiment [2] (first compound 0.2 µM) it was 0.566; in experiment [2] (first compound 0.6325 µM), 0.463; in experiment [2] (first compound 2 µM), 0.226.
Regarding EPLC-272H, the relative viability was 0.29 in the experiment with Staurosporine + OSI-027 (first compound 0.005 µM); 0.142 with Staurosporine + OSI-027 (first compound 0.01581 µM); 0.163 in the experiment with Staurosporine + OSI-027 (first compound 0.05 µM); 0.0783 with Staurosporine + OSI-027 (first compound 0.1581 µM); 0.0871 with Staurosporine + OSI-027 (first compound 0.5 µM); 0.152 in the experiment with Sulindac + Tozasertib (first compound 0.08 µM). Further, the relative viability with Sulindac + Tozasertib (first compound 0.253 µM) worked out at 0.25; with Sulindac + Tozasertib (first compound 2.53 µM) it was 0.25; with Sulindac + Tozasertib (first compound 8 µM), 0.408; in experiment [1] (first compound 0.02 µM), 0.337; in experiment [1] (first compound 0.2 µM), 0.294; in experiment [1] (first compound 0.6325 µM), 0.199. Moreover, the relative viability in experiment [1] (first compound 2 µM) came out at 0.221; in experiment [2] (first compound 0.02 µM), 0.621; in experiment [2] (first compound 0.2 µM) it was 0.401; in experiment [2] (first compound 0.6325 µM), 0.279; in experiment [2] (first compound 2 µM), 0.241.
Take H3255: the relative viability worked out at 0.408 with Staurosporine + OSI-027 (first compound 0.005 µM); 0.339 with Staurosporine + OSI-027 (first compound 0.01581 µM); 0.265 with Staurosporine + OSI-027 (first compound 0.05 µM); 0.216 in the experiment with Staurosporine + OSI-027 (first compound 0.1581 µM); 0.182 with Staurosporine + OSI-027 (first compound 0.5 µM); 0.593 with Sulindac + Tozasertib (first compound 0.08 µM). In addition, the relative viability with Sulindac + Tozasertib (first compound 0.253 µM) was 0.546; with Sulindac + Tozasertib (first compound 0.8 µM), 0.413; in the experiment with Sulindac + Tozasertib (first compound 2.53 µM) it was 0.616; in the experiment with Sulindac + Tozasertib (first compound 8 µM), 0.619; in experiment [1] (first compound 0.02 µM), 0.462; in experiment [1] (first compound 0.2 µM), 0.498. Besides, the relative viability in experiment [1] (first compound 0.6325 µM) came out at 0.495; in experiment [1] (first compound 2 µM), 0.386; in experiment [2] (first compound 0.02 µM) it was 0.798; in experiment [2] (first compound 0.2 µM), 0.77; in experiment [2] (first compound 0.6325 µM) it was 0.734; in experiment [2] (first compound 2 µM) it was 0.537.
Consider HARA, for which the relative viability with Staurosporine + OSI-027 (first compound 0.005 µM) amounted to 0.448; with Staurosporine + OSI-027 (first compound 0.05 µM), 0.128; in the experiment with Staurosporine + OSI-027 (first compound 0.1581 µM) it was 0.0628; with Staurosporine + OSI-027 (first compound 0.5 µM), 0.0398; in the experiment with Sulindac + Tozasertib (first compound 0.08 µM) it was 0.0822; with Sulindac + Tozasertib (first compound 0.253 µM), 0.0844. Also, the relative viability with Sulindac + Tozasertib (first compound 0.8 µM) is 0.121; with Sulindac + Tozasertib (first compound 2.53 µM) it was 0.0886; with Sulindac + Tozasertib (first compound 8 µM), 0.103; in experiment [1] (first compound 0.02 µM), 0.562; in experiment [1] (first compound 0.2 µM) it was 0.518; in experiment [1] (first compound 0.6325 µM) it was 0.321. The relative viability in experiment [1] (first compound 2 µM) is 0.373; in experiment [2] (first compound 0.02 µM), 0.517; in experiment [2] (first compound 0.2 µM), 0.39; in experiment [2] (first compound 0.6325 µM), 0.281; in experiment [2] (first compound 2 µM), 0.16.
For HCC-15, the relative viability is 0.565 with Staurosporine + OSI-027 (first compound 0.005 µM); 0.296 with Staurosporine + OSI-027 (first compound 0.05 µM); 0.113 with Staurosporine + OSI-027 (first compound 0.1581 µM); 0.0919 with Staurosporine + OSI-027 (first compound 0.5 µM); 0.29 with Sulindac + Tozasertib (first compound 0.08 µM); 0.423 in the experiment with Sulindac + Tozasertib (first compound 0.253 µM). In addition, the relative viability in the experiment with Sulindac + Tozasertib (first compound 0.8 µM) is 0.318; with Sulindac + Tozasertib (first compound 2.53 µM), 0.421; with Sulindac + Tozasertib (first compound 8 µM), 0.37; in experiment [1] (first compound 0.02 µM), 0.903; in experiment [1] (first compound 0.2 µM), 0.762; in experiment [1] (first compound 0.6325 µM) it was 0.539. The relative viability came to 0.315 in experiment [1] (first compound 2 µM); 0.952 in experiment [2] (first compound 0.02 µM); 0.912 in experiment [2] (first compound 0.2 µM); 0.554 in experiment [2] (first compound 0.6325 µM); 0.327 in experiment [2] (first compound 2 µM).

For the origin of these results see the supplement of paper PMC10307832.
